Data reported in BigSolDB 2.1.

NC(N)=NC(N)=NCCc1ccccc1
solubility (mole fraction)
Settings	278.15 K	283.15 K	288.15 K	293.15 K	298.15 K	303.15 K	308.15 K	313.15 K	318.15 K	323.15 K
in 1,4-dioxane	–	–	0.000166	0.000202	0.000249	0.000312	0.000379	0.00046	0.000551	0.00065
in DMF	0.0158	0.0191	0.0226	0.0256	0.0303	0.0353	0.0411	0.0491	0.0579	0.0655
in DMSO	–	–	–	0.0217	0.025	0.0305	0.0359	0.0431	0.0508	0.0603
in NMP	0.0113	0.014	0.017	0.0202	0.0235	0.028	0.0337	0.0409	0.0486	0.0579
in acetonitrile	0.000211	0.00026	0.000322	0.000398	0.000494	0.000596	0.00071	0.00084	0.00101	0.00119
in ethanol	0.00183	0.0022	0.00266	0.00322	0.00378	0.00449	0.00524	0.00614	0.00723	0.00847
in ethyl acetate	0.00157	0.00184	0.0022	0.00265	0.00318	0.00379	0.00445	0.00521	0.00603	0.00695
in ethylene glycol	0.0033	0.00366	0.00417	0.00481	0.00567	0.00677	0.00774	0.00919	0.011	0.0128
in isobutanol	0.000518	0.00063	0.000792	0.00095	0.00116	0.00139	0.00167	0.00197	0.00229	0.00265
in isopropanol	0.000814	0.000976	0.00118	0.00142	0.00174	0.00208	0.00247	0.00288	0.00334	0.00383
in methanol	0.00237	0.0028	0.00328	0.00385	0.00457	0.00532	0.00623	0.00743	0.00823	0.0103
in n-butanol	0.000627	0.000777	0.000923	0.00118	0.00142	0.00167	0.00194	0.00227	0.00265	0.00308
in n-propanol	0.000975	0.00116	0.00137	0.00173	0.00208	0.00249	0.0029	0.00341	0.00396	0.00452
in water	0.000389	0.000481	0.000585	0.000739	0.000888	0.00107	0.00126	0.00148	0.00175	0.00206
